Measurements reported in paper PMC8406298, “Discovery of Fungus-Specific Targets and Inhibitors Using Chemical Phenotyping of Pathogenic Spore Germination” (mBio, 2021).
pIC50: −log10 of the molar value.

What was measured:
[1] = system: Cryptococcus spores; assay: Quantitative germination assay (QGA), automated microscopy of spore germination; type: cell-based, Cryptococcus neoformans serotype D (deneoformans); conditions: for germination inhibition phenotype (chemical phenotype) in QGA: at phenotypic concentration
Experimental: In this automated microscopy-based assay, germination progression of spores is monitored as a function of changes in cell morphology over time (spores are small and oval; yeast are large and circular). Individual spores in a population (∼1 × 10^4 per sample) are measured to determine size (area) and shape (aspect ratio) from the onset of germination, and the data are collected for each cell over the time of germination (Fig. 1A).
Germination assays were modified from those described by Barkal et al. to introduce automation, increase throughput, and refine assay consistency ([12]). Briefly, 384-well plates (Thermo Scientific 142762) were loaded with 10^5 spores per well, and at 0 h, synthetic medium plus 2% dextrose (SD medium) containing the compounds of interest was added to the sample (final volume of 40 μl). All compounds were tested initially at 80 μM; however, concentrations were changed on a case-by-case basis for subsequent experiments. All assays and controls were performed with a final concentration of 0.8% DMSO (the compound solvent) unless specified otherwise. Spores were germinated at 30°C in a humidified chamber, and the same ∼5 × 10^3 cells were monitored every 2 h for 16 h. Imaging was performed on a Ti2 Nikon microscope, and each condition was visualized in a minimum of two individual wells with three fields of view acquired from each well. All images were analyzed as described previously based on cell shape and size using ImageJ. The population ratios of spores, intermediates, and yeast were determined. Error bars in plots are based on the variation among all fields of view acquired. Level of germination was determined by quantifying the decrease in the proportion of spores in a population, and rates were quantified by determining the change in this proportion over time. For all two-dimensional histograms, the x axis represents area from 0 μm^2 to 25 μm^2, and the y axis represents the aspect ratio from 0.4 to 1.
Cycloheximide (0.078 μM to 80 μM) (Dot Scientific, Inc. DSC81040-1), G418 (1.6 mM) (Fisher Scientific AAJ6267106), and puromycin (20 mM) (Dot Scientific, Inc. DSP33020-0.025) were tested with no DMSO (all were water soluble), whereas anisomycin (62.5 μM) (Sigma-Aldrich A9789-5MG) was tested in 2.5% DMSO.
Furcarbanil (80 μM) (Sigma-Aldrich T313122), rotenone (10 μM) (Fisher Scientific 501687383), and antimycin A (2.5 μM) (Santa Cruz Biotechnology, Inc. sc-202467A) were all tested in 0.8% DMSO, and TTFA (200 μM) (Sigma-Aldrich 88300-5G) was tested in 3% DMSO.

[2] = system: Candida albicans; parameters: method as in PMID 16876761; conditions: cited from earlier work
[3] = system: Cryptococcus yeast (JEC21); assay: Oxygen consumption rate experiments (Seahorse XFe96); type: cell-based, Cryptococcus neoformans serotype D (deneoformans); conditions: 10 μM inhibitor injected after 20 mM glucose
Experimental: Oxygen consumption experiments were performed on a Seahorse Biosciences XFe96 extracellular flux analyzer, and the assays were modified from those described by Lev et al. 2020 ([28]). Briefly, cartridges were hydrated overnight in Agilent Seahorse XF calibrant. JEC21 yeast were grown overnight in YPD, washed with double-distilled water (ddH2O) and resuspended to an OD600 of 0.08 in Seahorse XF Dulbecco’s modified Eagle medium (DMEM) at pH 7.4 (Agilent 103575-100). Cells (180 μl) were loaded into each well with the exception of blank wells, which were filled with XF DMEM. Each injection solution was 10× the final volume in XF DMEM. The assay was carried out at 30°C with injections occurring every 60 min. OCR was read every 6 min during each hour interval, with 3 min of mixing and 3 min of measuring. The following final concentrations were achieved after each injection: (a) 20 mM dextrose, (b) 10 μM chosen inhibitor (furcarbanil, B2, or B5) and 1% DMSO, (c) 50 μM rotenone, 50 μM antimycin A, and 1% DMSO, and (d) 100 mM 2-deoxy-D-glucose (2-DG; Sigma-Aldrich D8375-1G). Each condition was tested in triplicates.

[4] = system: normal human dermal fibroblasts (NHDF) cells; assay: Fibroblast cytotoxicity (CellTiter-Glo); type: cell-based; conditions: at concentrations as high as 80 μM; dose-response 0.5 to 80 μM
Procedure, shortened: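 Normal human dermal fibroblasts, 1 × 10^3 per well, exposed to compounds at 10 μM for 72 h at 37°C. Viability read as ATP-dependent CellTiter-Glo luminescence. Dose-response runs titrated compounds from 80 μM to 0.5 μM in duplicate.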

[5] = system: Cryptococcus spores harboring CNK01510-NL fusion; assay: Nanoluciferase germination screen (HTS); type: cell-based, Cryptococcus neoformans serotype D (deneoformans)
Description: To identify potential inhibitors of spore germination, a nanoluciferase (NL)-based high-throughput screening (HTS) assay was developed, and compounds from three libraries of structurally diverse, drug-like small molecules (LifeChem 1 to 3) were screened (see Fig. S1 in the supplemental material). For the assay, a previously identified protein (CNK01510) was fused to the nanoluciferase protein (Promega) and introduced into its endogenous locus in the Cryptococcus genome ([14]). Strains harboring the integrated NL protein fusion were crossed under sexual development conditions to produce spores. Spores from the NL strains yielded very little NL enzyme activity; however, yeast from those strains produced a robust NL signal. Most importantly, the amount of NL signal correlated with the germination state. As spores germinated into yeast, the levels of NL signal increased, resulting in a robust signal over baseline at the end of germination (∼14-fold) (Fig. S1). […] Secondary screens were performed on these hits to determine effects on yeast replication, cytotoxicity against mammalian fibroblasts, and direct inhibition of the NL enzyme (see Data Set S1).
Screening of the LifeChem libraries (Life Chemicals) was carried out with the assistance of the University of Wisconsin—Madison (UW-Madison) small-molecule screening facility. All NL screening was performed as described previously ([7]). […]

[6] = system: Cryptococcus spores; parameters: method as in PMID 31570398; conditions: previous study; cited from earlier work

Compound | phenotypic concentration (concentration showing the germination phenotype in QGA) [1] [µM] | germination inhibition phenotype (chemical phenotype) in QGA [1] | further results
O=C(CC(=O)C(F)(F)F)c1cccs1 [TTFA, thenoyltrifluoroacetone, reference compound] | 200 | asynchrony | effect on hyphal formation [2]: prevent hyphal formation
Cc1cc(C(=O)Nc2ccccc2)c(C)o1 [furcarbanil, reference compound] | 80 | asynchrony | effect on oxygen consumption rate (OCR) [3]: initial substantial decrease in OCR followed by recovery
COc1ccc(/C=C/c2nc3ccccc3[nH]2)cc1 [PubChem CID 5769808] | 20 | slow down | –
Cc1cc(C(=O)N(CCc2cccs2)C2CC2)c(C)o1 [B2] | – | – | inhibition at 5 µM ([1]; Cryptococcus): > 75%; cytotoxicity against fibroblasts [4]: ≤ 25%; effect on oxygen consumption rate (OCR) [3]: substantial decrease in OCR that was not recovered from
COc1ccc(C[C@H]2NC[C@H](O)[C@H]2OC(C)=O)cc1 [anisomycin, reference compound] | – | slow-down | –
Cc1ccc(-c2nnc(Cn3cnc4ccccc43)o2)cc1 [PubChem CID 16456942] | 5 | slow down | –
C/C=C/c1ccc(OCCn2cnc3ccccc32)c(OC)c1 [PubChem CID 5769972] | 10 | slow down | –
Cc1cc(C(=O)N2CCC(Oc3ncccc3Cl)CC2)c(C)o1 [B5] | – | – | effect on oxygen consumption rate (OCR) [3]: small decrease in OCR that was not recovered from
O=C(Nc1nc2c(Br)cccc2s1)C1CC1 [PubChem CID 7202929] | 10 | asynchrony | –
C[C@@H]1C[C@@H]([C@H](O)CC2CC(=O)NC(=O)C2)C(=O)[C@@H](C)C1 [cycloheximide, reference compound] | – | slow-down | inhibition of germination (changes in size or shape) ([1]; 10 µM): full inhibition of germination; pIC50 ([1]; Cryptococcus, 16 h, read-out: 50% inhibitory concentration (IC50) of spore germination): 5.77; NL signal in germination screen [5]: low levels of NL signal
ClC1(Cl)CC1Cn1cnc2ccccc21 (stereo not shown) [PubChem CID 2936975] | 40 | slow down | –
O=C(c1cc(-c2ccco2)on1)N1CCC(c2cccs2)CC1 [PubChem CID 71786870] | 40 | asynchrony | –
O=C(CCc1ccccc1Br)N1CCC(c2ccsc2)CC1 [PubChem CID 71807075] | 40 | asynchrony | –
O=C(CSCc1ccccc1)N1CCC(c2cccs2)CC1 [PubChem CID 71786876] | 80 | asynchrony | –
Cc1ccccc1OCCn1cnc2ccccc21 [PubChem CID 749608] | 10 | slow down | –
CCc1ccccc1NC(=O)c1cc(C)oc1C [B1] | 80 | – | –
CC(C)(C)c1ccc(-c2csc(N)n2)cc1 [PubChem CID 673711] | 5 | bimodal | –
O=C(CSCc1ccccc1)N1CCC(c2ccsc2)CC1 [PubChem CID 71786985] | 80 | asynchrony | –
CCN(CC)C(=S)SSC(=S)N(CC)CC [disulfiram] | – | – | germination inhibition phenotype in QGA [6]: slow-end
O=C(CCc1ccccc1Br)N1CCC(c2cccs2)CC1 [PubChem CID 71807060] | 40 | asynchrony | –
CCn1c(CSc2ccccc2)nc2ccccc21 [PubChem CID 2992099] | 80 | slow down | –
COc1cccc2cc(-c3csc(NN=C4CCN(C)CC4)n3)c(=O)oc12 [PubChem CID 4913014] | 20 | asynchrony | –
CN[C@@H]1[C@@H](O)[C@@H](O[C@@H]2[C@@H](O)[C@H](O[C@H]3O[C@H]([C@@H](C)O)[C@@H](O)[C@H](O)[C@H]3N)[C@@H](N)C[C@H]2N)OC[C@]1(C)O [Geneticin, reference compound] | – | slow-down | –
Cc1nc(NCc2ccccc2)c2ccsc2n1 [A5] | – | – | inhibition at 5 µM ([1]; Cryptococcus): > 80%; cytotoxicity against fibroblasts [4]: < 20%
CCCOc1ccc(CSc2nc3ccccc3[nH]2)cc1 [PubChem CID 1653621] | 80 | slow down | –
c1ccc(OCCCCSc2nc3ccccc3[nH]2)cc1 [PubChem CID 1653635] | 80 | slow down | –
